In patent publication US11109593B2, “Isoxazolin-5-one derivative and herbicide containing same as active ingredient” (HOKKO CHEMICAL INDUSTRY CO., LTD., priority 2017, dated 2021):

Assays:
Assay type in all cases: in vivo
Echinochloa crus-galli [1] = assay: Test Example 2: herbicidal effect test by treatment during growing period in paddy rice cultivation (seven days after seeding); conditions: for herbicidal rate, Echinochloa crus-galli: 120 g/10a, rated 14 days after treatment, paddy soil pots; for Herbicidal rate (%) Echinochloa crus-galli: 120 g/10a active ingredient, assessed 14 days after treatment, dry weight vs untreated area
Method: (§1) This test was conducted in a double system per one agent solution concentration area, and the herbicidal rates (%) were determined by the following equation (Math. 1) on 14 days after the treatment with the agents. Herbicidal Rate (%)={1-(Average Dry Weight (g) of Plant of Treated Area)/(Average Dry Weight (g) of Plant of Untreated Area)}×100 [Math. 1]
(§2) Herbicidal Effect Test by Treatment During Growing Period in Paddy Rice Cultivation
(§3) Wagner pots with an area of 1/10000 ares were filled with a paddy soil, and after adding water, a compound fertilizer (N:P:K=17:17:17) was mixed, followed by soil puddling. Then, Echinochloa crus-galli, broad leaf weeds (Lindernia pyxidaria and Monochoria vaginalis) and Scirpus juncoides, 30 seeds each, were sown in a depth of 0 to 1 cm. Water was poured immediately after seeding, and the water depth was kept at about 3 cm. The subsequent management was conducted in a glass greenhouse. Emulsions prepared using the compounds in Table 4 below according to Formulation Example 5 were diluted with water seven days after seeding, and a certain amount of the water-diluted agent solutions were dropped. The converted amount of the applied active ingredient corresponded to 120 g per 10 ares. The test was conducted in a double system per one agent solution concentration area, and the herbicidal rates (%) were determined by the equation (Math. 1) on 14 days after the treatment with the agents. […] The compound numbers in Table 4 are the same as those in Table 1 and Table 2 above.

Scirpus juncoides [2] = assay: as above; conditions: for herbicidal rate, Scirpus juncoides: 120 g/10a, rated 14 days after treatment, paddy soil pots; for Herbicidal rate (%) Scirpus juncoides: 120 g/10a active ingredient, assessed 14 days after treatment, dry weight vs untreated area
Method: as §1, §2, §3

[3] = tested on: broad leaf weeds (Lindernia pyxidaria and Monochoria vaginalis); assay: as above; conditions: for herbicidal rate, Lindernia pyxidaria / herbicidal rate, Monochoria vaginalis: 120 g/10a, rated 14 days after treatment, paddy soil pots; for Herbicidal rate (%) Lindernia pyxidaria / Herbicidal rate (%) Monochoria vaginalis: 120 g/10a active ingredient, assessed 14 days after treatment, dry weight vs untreated area
Method: as §1, §2, §3

Echinochloa crus-galli [4] = assay: Test Example 1: herbicidal effect test by treatment of rice paddy soil (immediately after seeding)
Method: (§4) Herbicidal Effect Test by Treatment of Rice Paddy Soil
(§5) Wagner pots with an area of 1/10000 ares were filled with a paddy soil, and after adding water, a compound fertilizer (N:P:K=17:17:17) was added, followed by soil puddling. Then, Echinochloa crus-galli, broad leaf weeds (Lindernia pyxidaria and Monochoria vaginalis) and Scirpus juncoides, 30 seeds each, were sown in a depth of 0 to 1 cm. Water was poured immediately after seeding, and the water depth was kept at about 3 cm. The subsequent management was conducted in a glass greenhouse. Immediately after that, emulsions prepared using the compounds in Table 3 below according to Formulation Example 5 were diluted with water, and a certain amount of the water-diluted agent solutions were dropped. The converted amount of the applied active ingredient corresponded to 120 g per 10 ares.
as §1
(§6) The compound numbers in Table 3 are the same as those in Table 1 and Table 2 above.

Scirpus juncoides [5] = assay: as above
Method: as §4, §5, §1, §6

[6] = tested on: broad leaf weeds (Lindernia pyxidaria and Monochoria vaginalis); assay: as above
Method: as §4, §5, §1, §6

[7] = 120 g/10a active ingredient, 14 days after treatment, dry weight vs untreated area
[8] = Lindernia pyxidaria, 120 g/10a active ingredient, 14 days after treatment, dry weight vs untreated area
[9] = Monochoria vaginalis, 120 g/10a active ingredient, 14 days after treatment, dry weight vs untreated area
[10] = 120 g/10a active ingredient, dry weight vs untreated area, 14 days after treatment
[11] = Lindernia pyxidaria, 120 g/10a active ingredient, dry weight vs untreated area, 14 days after treatment
[12] = Monochoria vaginalis, 120 g/10a active ingredient, dry weight vs untreated area, 14 days after treatment

SMILES | herbicidal rate, Echinochloa crus-galli (Echinochloa crus-galli [1]) [%] | herbicidal rate, Scirpus juncoides (Scirpus juncoides [2]) [%] | herbicidal rate, Lindernia pyxidaria [3] [%] | herbicidal rate, Monochoria vaginalis [3] [%] | Herbicidal rate (%) Echinochloa crus-galli (Echinochloa crus-galli [4]; [7]) [%] | Herbicidal rate (%) Scirpus juncoides (Scirpus juncoides [5]; [7]) [%] | Herbicidal rate (%) Lindernia pyxidaria [6, 8] [%] | Herbicidal rate (%) Monochoria vaginalis [6, 9] [%] | Herbicidal rate (%) Echinochloa crus-galli (Echinochloa crus-galli [1]) [%] | Herbicidal rate (%) Scirpus juncoides (Scirpus juncoides [2]) [%] | Herbicidal rate (%) Lindernia pyxidaria [3] [%] | Herbicidal rate (%) Monochoria vaginalis [3] [%] | Herbicidal rate (%) Echinochloa crus-galli (Echinochloa crus-galli [4]; [10]) [%] | Herbicidal rate (%) Scirpus juncoides (Scirpus juncoides [5]; [10]) [%] | Herbicidal rate (%) Lindernia pyxidaria [6, 11] [%] | Herbicidal rate (%) Monochoria vaginalis [6, 12] [%]
Cc1c(Cc2ccccc2N(S(=O)(=O)C(F)(F)F)S(=O)(=O)C(F)(F)F)c(=O)on1CCOc1ccccc1 [Compound 1-1058] | 90 | 80 | 80 | 90 | 90 | 90 | 80 | 70 |  |  |  |  |  |  |  | 
Cc1c(Cc2ccccc2N(S(=O)(=O)C(F)(F)F)S(=O)(=O)C(F)(F)F)c(=O)on1Cc1ccc(Br)cc1 [Compound 1-1016] |  |  |  |  |  |  |  |  | 40 | 60 | 70 | 80 | 90 | 80 | 90 | 60
Cc1c(Cc2ccccc2N(S(=O)(=O)C(F)(F)F)S(=O)(=O)C(F)(F)F)c(=O)on1C(C)c1ccsc1 (stereo not shown) [Compound 1-1057] | 80 | 80 | 60 | 80 | 90 | 90 | 80 | 80 |  |  |  |  |  |  |  | 
Cc1c(Cc2ccccc2NS(=O)(=O)C(F)(F)F)c(=O)on1Cc1cccs1 [Compound 1-231] |  |  |  |  |  |  |  |  | 60 | 60 | 40 | 40 | 90 | 80 | 80 | 90
Cc1c(Cc2ccccc2NS(=O)(=O)C(F)(F)F)c(=O)on1Cc1cccc(C(F)(F)F)c1 [Compound 1-193] |  |  |  |  |  |  |  |  | 60 | 70 | 80 | 80 | 90 | 90 | 100 | 100
COc1ccc(Cn2oc(=O)c(Cc3ccccc3N(S(=O)(=O)C(F)(F)F)S(=O)(=O)C(F)(F)F)c2C)cc1 [Compound 1-1022] |  |  |  |  |  |  |  |  | 70 | 90 | 100 | 100 | 90 | 90 | 100 | 100
CCN(CC)C(=O)n1oc(=O)c(Cc2ccccc2N(C(=O)OCC(C)C)S(=O)(=O)C(F)(F)F)c1C [Compound 1-679] |  |  |  |  |  |  |  |  | 50 | 40 | 40 | 40 | 60 | 50 | 50 | 50
CCC(C)Cn1oc(=O)c(Cc2ccccc2N(C(=O)OCc2ccccc2)S(=O)(=O)C(F)(F)F)c1C (single isomer, unassigned) [1-788 (TLC top)] |  |  |  |  |  |  |  |  | 40 | 50 | 40 | 40 | 80 | 80 | 60 | 50
CC(C)c1c(Cc2ccccc2NS(=O)(=O)C(F)(F)F)c(=O)on1C(C)C [Compound 1-68] |  |  |  |  |  |  |  |  | 40 | 80 | 70 | 80 | 80 | 90 | 90 | 80
Cc1c(Cc2ccccc2NS(=O)(=O)C(F)(F)F)c(=O)on1Cc1ccccc1F [Compound 1-181] |  |  |  |  |  |  |  |  | 50 | 90 | 80 | 90 | 90 | 90 | 100 | 90
Cc1c(Cc2ccccc2N(S(=O)(=O)C(F)(F)F)S(=O)(=O)C(F)(F)F)c(=O)on1C(C)c1ccc(Cl)cc1 (stereo not shown) [Compound 1-1034] |  |  |  |  |  |  |  |  | 90 | 90 | 80 | 80 | 100 | 90 | 100 | 100
Cc1c(Cc2ccccc2NS(=O)(=O)C(F)(F)F)c(=O)on1CCOCc1ccccc1 [Compound 1-238] |  |  |  |  |  |  |  |  | 80 | 80 | 40 | 80 | 100 | 80 | 80 | 80
Cc1c(Cc2ccccc2NS(=O)(=O)C(F)(F)F)c(=O)on1Cc1cccc(F)c1 [Compound 1-182] |  |  |  |  |  |  |  |  | 40 | 70 | 60 | 60 | 90 | 100 | 100 | 90
CSCCCn1oc(=O)c(Cc2ccccc2NS(=O)(=O)C(F)(F)F)c1C [Compound 1-167] |  |  |  |  |  |  |  |  | 90 | 90 | 90 | 90 | 100 | 90 | 90 | 80
Cc1c(Cc2ccccc2NS(=O)(=O)C(F)(F)F)c(=O)on1CC(F)(F)c1ccccc1 [Compound 1-220] |  |  |  |  |  |  |  |  | 40 | 90 | 100 | 90 | 90 | 90 | 100 | 100
Cc1c(Cc2ccccc2N(S(=O)(=O)C(F)(F)F)S(=O)(=O)C(F)(F)F)c(=O)on1Cc1ccccc1F [Compound 1-1012] |  |  |  |  |  |  |  |  | 60 | 90 | 80 | 80 | 90 | 100 | 100 | 100
CC(C)n1oc(=O)c(Cc2ccccc2N(S(=O)(=O)C(F)(F)F)S(=O)(=O)C(F)(F)F)c1C1CC1 [Compound 1-84] |  |  |  |  |  |  |  |  | 40 | 70 | 40 | 40 | 80 | 80 | 70 | 70
